Data taken from patent publication US12264127B1, “8-((3-formyl-4-hydroxyphenyl)diazenyl)naphthalene-1,3-disulfonic acid as an antioxidant compound” (KING FAISAL UNIVERSITY, priority 2023, dated 2025).

Assay: DPPH radical scavenging antioxidant test
Assay type: biochemical
Settings: 517 nm; for Inhibition (radical scavenging inhibition): 0.2 mL DPPH (0.75 mM), compound 3 μM in ethanol, 30 min incubation in the dark
Procedure: The antioxidant properties of the 8-((3-formyl-4-hydroxyphenyl)diazenyl)naphthalene-1,3-disulfonic acid were studied by adding 0.2 mL DPPH (0.75 mM)) to compound 8-((3-formyl-4-hydroxyphenyl)diazenyl)naphthalene-1,3-disulfonic acid (III) (3 μM) in ethanol. After 30 min of incubation in the dark, the absorbance was read against a blank at 517 nm. Ascorbic acid (vitamin C) was used as standard antioxidants (positive control). A blank sample was prepared by 0.2 ml of DPPH in 3 ml ethanol. A negative control sample was run using ethanol instead of the sample. The radical scavenging inhibition was calculated using the following equation: […]
The antioxidant activity for the synthesized compound is listed in Table 1, using Vitamin C as a reference.

| SMILES | Inhibition (radical scavenging inhibition) [%] | antioxidant potential compared to vitamin C (in words) (DPPH in vitro test, vitamin C as positive control) |
| --- | --- | --- |
| O=Cc1cc(N=Nc2cccc3cc(S(=O)(=O)O)cc(S(=O)(=O)O)c23)ccc1O [Product III, 8-((3-formyl-4-hydroxyphenyl)diazenyl)naphthalene-1,3-disulfonic acid] | 54 | high potential as an antioxidant compared to vitamin C |
| O=C1O[C@H]([C@@H](O)CO)C(O)=C1O [vit c, Ascorbic acid, reference compound] | 74 |  |
